Experimental data from patent US11352359B2, “PI3K protein kinase inhibitors” (Rhizen Pharmaceuticals SA, priority 2013, dated 2022).

Experiments:
PI3Kβ = PI3Kβ (Homo sapiens, UniProt P42338); experiment: Fluorescent determination of PI3Kinase enzyme activity (HTRF), PI3Kβ; format: biochemical
Description: (§1) Fluorescent Determination of PI3Kinase Enzyme Activity
(§2) Phosphoinositide 3 kinases (PI3K) belong to a class of Lipid kinases that play a critical role in the regulation of several key cellular processes. The PI3K are capable of phosphorylating the 3-hydroxy position of phosphoinositols thereby generating second messengers involved in downstream signalling events. The homogenous time resolved fluorescence (HTRF) assay allows detection of 3,4,5-triphosphate (PIP3) formed as a result of phosphorylation of phosphotidylinositol 4,5-biphosphate (PIP2) by PI3K isoforms such as α, […], γ or δ.
(§3) PI3K isoform activity for α, β, γ or δ is to be determined using a PI3K human HTRF™ Assay Kit (Millipore, Billerica, Mass.) with modifications. All incubations were carried out at room temperature. Briefly, 0.5 μl of 40× inhibitor (in 100% DMSO) or 100% DMSO were added to each well of a 384-well black plate (Greiner Bio-One, Monroe, N.C.) containing 14.5 μl 1× reaction buffer/PIP2 (10 mM MgCl2, 5 mM DTT, 1.38 μM PIP2) mix with or without enzyme and incubated for 10 min. After the initial incubation, 5 μl/well of 400 μM ATP was added and incubated for an additional 30 minutes. Reaction was terminated by adding 5 μl/well stop solution (Millipore, Billerica, Mass.). Five microliters of detection mix (Millipore, Billerica, Mass.) were then added to each well and was incubated for 6-18 h in the dark. HRTF ratio was measured on a microplate reader (BMG Labtech, Germany) at an excitation wavelength of 337 nm and emission wavelengths of 665 and 620 nm with an integration time of 400 μsec. Data was analyzed using Graphpad Prism (Graphpad software; San Diego Calif.) for IC50 determination).

PI3Kα = PI3Kα (Homo sapiens, UniProt P42336); experiment: Fluorescent determination of PI3Kinase enzyme activity (HTRF), PI3Kα; format: biochemical
Chain of PI3Kα (P42336 whole entry): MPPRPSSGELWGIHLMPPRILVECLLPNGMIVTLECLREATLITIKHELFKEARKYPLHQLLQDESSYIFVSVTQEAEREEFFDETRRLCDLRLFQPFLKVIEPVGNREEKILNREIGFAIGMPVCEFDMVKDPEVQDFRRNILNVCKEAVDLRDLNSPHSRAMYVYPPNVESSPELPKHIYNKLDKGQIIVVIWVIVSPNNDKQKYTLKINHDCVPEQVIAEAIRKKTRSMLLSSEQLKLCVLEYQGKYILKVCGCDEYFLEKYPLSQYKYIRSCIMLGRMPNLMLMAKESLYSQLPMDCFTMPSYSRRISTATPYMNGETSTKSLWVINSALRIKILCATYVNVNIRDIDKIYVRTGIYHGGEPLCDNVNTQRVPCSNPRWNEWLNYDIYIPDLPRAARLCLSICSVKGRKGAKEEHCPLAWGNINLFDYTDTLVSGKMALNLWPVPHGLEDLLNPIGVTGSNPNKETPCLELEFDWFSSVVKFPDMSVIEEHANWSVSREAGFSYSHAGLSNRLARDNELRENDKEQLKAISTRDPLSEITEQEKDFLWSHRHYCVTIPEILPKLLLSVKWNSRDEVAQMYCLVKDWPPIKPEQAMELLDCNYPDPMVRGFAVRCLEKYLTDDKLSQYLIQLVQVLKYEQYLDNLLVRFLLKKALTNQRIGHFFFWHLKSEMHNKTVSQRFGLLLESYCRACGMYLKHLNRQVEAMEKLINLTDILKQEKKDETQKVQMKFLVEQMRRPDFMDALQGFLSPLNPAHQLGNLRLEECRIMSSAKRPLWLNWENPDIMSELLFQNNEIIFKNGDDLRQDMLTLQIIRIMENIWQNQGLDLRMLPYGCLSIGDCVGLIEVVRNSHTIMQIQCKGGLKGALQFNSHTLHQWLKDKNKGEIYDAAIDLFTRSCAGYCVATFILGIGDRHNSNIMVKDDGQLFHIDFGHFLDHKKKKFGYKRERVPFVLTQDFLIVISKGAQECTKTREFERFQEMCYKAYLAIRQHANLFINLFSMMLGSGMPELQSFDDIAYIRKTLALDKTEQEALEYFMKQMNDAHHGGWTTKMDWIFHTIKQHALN
Chain of PI3Kα (P27986 whole entry partner): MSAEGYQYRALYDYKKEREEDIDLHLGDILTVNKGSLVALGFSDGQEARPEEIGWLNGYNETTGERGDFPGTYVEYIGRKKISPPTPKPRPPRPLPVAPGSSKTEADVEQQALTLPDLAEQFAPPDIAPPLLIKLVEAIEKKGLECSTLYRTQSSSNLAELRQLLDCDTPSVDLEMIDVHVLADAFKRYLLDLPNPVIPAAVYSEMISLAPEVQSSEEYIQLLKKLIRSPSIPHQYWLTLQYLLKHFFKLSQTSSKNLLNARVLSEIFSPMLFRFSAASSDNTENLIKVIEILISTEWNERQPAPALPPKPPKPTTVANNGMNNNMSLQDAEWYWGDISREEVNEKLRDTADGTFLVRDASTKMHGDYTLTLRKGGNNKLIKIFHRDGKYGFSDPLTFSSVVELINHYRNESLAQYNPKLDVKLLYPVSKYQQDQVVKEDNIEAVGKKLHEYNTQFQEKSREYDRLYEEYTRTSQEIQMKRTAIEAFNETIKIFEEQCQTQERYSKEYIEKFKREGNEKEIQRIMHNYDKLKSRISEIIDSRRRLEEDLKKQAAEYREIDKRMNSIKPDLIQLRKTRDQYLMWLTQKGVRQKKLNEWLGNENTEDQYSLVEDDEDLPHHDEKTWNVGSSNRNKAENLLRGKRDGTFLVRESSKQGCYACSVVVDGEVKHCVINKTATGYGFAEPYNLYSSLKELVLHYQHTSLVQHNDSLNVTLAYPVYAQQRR
Description: as §1, §2, §3

PI3Kγ = PI3Kγ (Homo sapiens, UniProt P48736); experiment: Fluorescent determination of PI3Kinase enzyme activity (HTRF), PI3Kγ; format: biochemical; settings: 100 nM (underlined values: 300 nM)
Chain of PI3Kγ (P48736 whole entry): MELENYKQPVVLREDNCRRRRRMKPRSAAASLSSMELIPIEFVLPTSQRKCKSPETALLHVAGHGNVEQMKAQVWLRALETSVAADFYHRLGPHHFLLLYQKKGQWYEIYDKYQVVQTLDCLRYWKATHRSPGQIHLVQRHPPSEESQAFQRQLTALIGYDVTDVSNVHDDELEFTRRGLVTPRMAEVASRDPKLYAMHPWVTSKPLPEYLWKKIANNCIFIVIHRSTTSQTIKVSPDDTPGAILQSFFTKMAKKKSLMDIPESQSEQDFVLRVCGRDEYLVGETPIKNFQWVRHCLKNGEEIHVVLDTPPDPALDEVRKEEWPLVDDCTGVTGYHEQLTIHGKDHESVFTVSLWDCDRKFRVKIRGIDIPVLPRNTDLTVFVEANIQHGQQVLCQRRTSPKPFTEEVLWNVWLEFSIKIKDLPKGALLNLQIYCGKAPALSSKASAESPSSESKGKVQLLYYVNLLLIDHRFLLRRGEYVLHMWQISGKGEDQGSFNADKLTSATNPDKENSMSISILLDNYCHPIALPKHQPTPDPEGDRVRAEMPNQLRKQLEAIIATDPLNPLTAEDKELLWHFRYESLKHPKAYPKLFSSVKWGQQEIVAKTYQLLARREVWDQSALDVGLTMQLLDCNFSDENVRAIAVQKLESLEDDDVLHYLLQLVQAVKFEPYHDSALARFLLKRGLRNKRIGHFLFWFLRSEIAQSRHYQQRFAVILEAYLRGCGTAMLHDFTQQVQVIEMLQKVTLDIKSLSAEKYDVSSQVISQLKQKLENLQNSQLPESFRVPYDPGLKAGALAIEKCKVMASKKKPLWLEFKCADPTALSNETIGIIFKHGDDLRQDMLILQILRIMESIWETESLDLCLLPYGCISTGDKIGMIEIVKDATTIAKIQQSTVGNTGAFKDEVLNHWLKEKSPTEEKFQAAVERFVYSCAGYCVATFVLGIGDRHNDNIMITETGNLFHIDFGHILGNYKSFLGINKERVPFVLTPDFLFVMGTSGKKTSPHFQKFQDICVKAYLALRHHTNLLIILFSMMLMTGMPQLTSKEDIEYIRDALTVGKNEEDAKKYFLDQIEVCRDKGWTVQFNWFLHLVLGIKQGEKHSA
Description: as §1, §2, §3

PI3Kδ = PI3Kδ (Homo sapiens, UniProt O00329); experiment: Fluorescent determination of PI3Kinase enzyme activity (HTRF), PI3Kδ; format: biochemical; settings: 100 nM (underlined values: 300 nM)
Chain of PI3Kδ (O00329 whole entry): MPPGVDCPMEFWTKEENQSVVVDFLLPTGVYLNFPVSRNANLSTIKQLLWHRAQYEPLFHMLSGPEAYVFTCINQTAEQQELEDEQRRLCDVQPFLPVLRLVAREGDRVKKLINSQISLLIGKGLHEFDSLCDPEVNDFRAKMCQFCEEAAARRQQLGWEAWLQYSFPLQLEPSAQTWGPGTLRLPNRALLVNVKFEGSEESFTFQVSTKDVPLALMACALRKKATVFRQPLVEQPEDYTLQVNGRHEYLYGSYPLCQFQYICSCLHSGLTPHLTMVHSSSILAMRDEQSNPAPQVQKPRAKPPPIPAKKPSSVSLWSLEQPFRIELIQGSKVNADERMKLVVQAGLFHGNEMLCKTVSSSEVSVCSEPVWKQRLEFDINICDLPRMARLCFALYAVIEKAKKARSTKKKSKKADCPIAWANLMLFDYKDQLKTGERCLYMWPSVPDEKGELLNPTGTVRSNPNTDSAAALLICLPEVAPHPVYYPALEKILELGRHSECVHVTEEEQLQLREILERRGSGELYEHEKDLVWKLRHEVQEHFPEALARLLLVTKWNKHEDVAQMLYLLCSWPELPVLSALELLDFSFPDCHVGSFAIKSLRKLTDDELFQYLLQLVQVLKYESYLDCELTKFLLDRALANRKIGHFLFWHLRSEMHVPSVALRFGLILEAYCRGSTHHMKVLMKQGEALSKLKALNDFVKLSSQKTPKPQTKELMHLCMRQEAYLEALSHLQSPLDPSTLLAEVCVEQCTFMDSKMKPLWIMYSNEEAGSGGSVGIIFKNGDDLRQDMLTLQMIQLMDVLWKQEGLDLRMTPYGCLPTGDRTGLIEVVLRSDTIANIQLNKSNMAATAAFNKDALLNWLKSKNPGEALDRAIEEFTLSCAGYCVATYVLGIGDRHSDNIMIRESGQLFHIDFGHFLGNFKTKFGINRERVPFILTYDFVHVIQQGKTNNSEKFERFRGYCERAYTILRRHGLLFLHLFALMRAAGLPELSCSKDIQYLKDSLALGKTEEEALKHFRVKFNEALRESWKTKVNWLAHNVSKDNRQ
Chain of PI3Kδ (P27986 whole entry partner): as the sequence (P27986 whole entry partner) above
Description: as §1, §2, §3

Chain of PI3Kβ (P42338 whole entry): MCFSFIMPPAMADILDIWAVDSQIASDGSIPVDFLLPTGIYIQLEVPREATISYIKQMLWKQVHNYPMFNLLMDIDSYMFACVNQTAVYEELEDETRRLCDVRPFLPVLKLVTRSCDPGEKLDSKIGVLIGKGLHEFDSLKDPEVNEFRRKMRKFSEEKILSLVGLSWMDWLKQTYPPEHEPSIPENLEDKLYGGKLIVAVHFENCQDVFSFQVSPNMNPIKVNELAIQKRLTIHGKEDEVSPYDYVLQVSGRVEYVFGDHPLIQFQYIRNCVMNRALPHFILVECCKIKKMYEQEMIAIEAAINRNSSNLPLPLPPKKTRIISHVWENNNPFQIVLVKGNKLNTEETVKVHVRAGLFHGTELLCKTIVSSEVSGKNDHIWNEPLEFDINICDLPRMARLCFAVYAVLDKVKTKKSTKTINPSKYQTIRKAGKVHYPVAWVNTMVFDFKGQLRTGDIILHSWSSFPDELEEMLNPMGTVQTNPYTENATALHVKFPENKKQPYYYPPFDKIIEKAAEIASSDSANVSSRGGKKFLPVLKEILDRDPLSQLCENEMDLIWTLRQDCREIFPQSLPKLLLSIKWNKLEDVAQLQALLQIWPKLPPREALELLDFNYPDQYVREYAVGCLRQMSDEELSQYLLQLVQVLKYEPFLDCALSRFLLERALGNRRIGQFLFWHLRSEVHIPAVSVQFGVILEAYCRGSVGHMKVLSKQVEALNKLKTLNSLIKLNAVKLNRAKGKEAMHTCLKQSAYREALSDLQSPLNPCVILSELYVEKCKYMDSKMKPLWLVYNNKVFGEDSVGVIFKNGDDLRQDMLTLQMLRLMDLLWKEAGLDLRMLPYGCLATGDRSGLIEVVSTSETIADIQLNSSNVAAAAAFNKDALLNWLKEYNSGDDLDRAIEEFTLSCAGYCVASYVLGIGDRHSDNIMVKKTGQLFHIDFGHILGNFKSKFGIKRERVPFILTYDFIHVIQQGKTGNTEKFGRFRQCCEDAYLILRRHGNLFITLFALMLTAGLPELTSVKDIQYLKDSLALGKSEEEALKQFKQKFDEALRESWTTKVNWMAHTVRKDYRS
Chain of PI3Kβ (P27986 whole entry partner): as the sequence (P27986 whole entry partner) above

inhibition at 1 µM (PI3Kβ) [%]	melting point [°C]	inhibition at 1 µM (PI3Kα) [%]	inhibition at 0.1 µM (PI3Kγ) [%]	inhibition at 0.1 µM (PI3Kδ) [%]	Compound
20 to 40	230 to 232	0 to 10	20 to 40	40 to 60	C[C@H](c1cc2ccccc2c(=O)n1-c1ccccc1)n1nc(-c2ccc(O)c(F)c2)c2c(N)ncnc21 [Example 7b, (−)-3-(1-(4-amino-3-(3-fluoro-4-hydroxyphenyl)-1H-pyrazolo[3,4-d]pyrimidin-1-yl)ethyl)-2-phenylisoquinolin-1(2H)-one]
10 to 20	225 to 227	0 to 10	40 to 60	80 to 100	Cc1n[nH]c2cc(-c3nn([C@H](C)c4cc5cccc(Cl)c5c(=O)n4-c4ccccc4)c4ncnc(N)c34)ccc12 [Example 21b, (−)-3-(1-(4-amino-3-(3-methyl-1H-indazol-6-yl)-1H-pyrazolo[3,4-d]pyrimidin-1-yl)ethyl)-8-chloro-2-phenylisoquinolin-1(2H)-one]
10 to 20	231 to 232	0 to 10	20 to 40	20 to 40	CC(c1nc2ccc(F)cc2c(=O)n1-c1ccccc1)n1nc(-c2ccc(O)c(F)c2)c2c(N)ncnc21 (stereo not shown) [Example 13, 2-(1-(4-amino-3-(3-fluoro-4-hydroxyphenyl)-1H-pyrazolo[3,4-d]pyrimidin-1-yl)ethyl)-6-fluoro-3-phenylquinazolin-4(3H)-one]
20 to 40	230 to 233	0 to 10	0 to 20	20 to 40	CC(c1nc2ccccc2c(=O)n1-c1ccccc1)n1nc(-c2ccc(O)c(F)c2)c2c(N)ncnc21 (stereo not shown) [Example 8, 2-(1-(4-amino-3-(3-fluoro-4-hydroxyphenyl)-1H-pyrazolo[3,4-d]pyrimidin-1-yl)ethyl)-3-phenylquinazolin-4(3H)-one]
0 to 10	269 to 271	0 to 10	0 to 20	20 to 40	C[C@H](c1nc2cccc(F)c2c(=O)n1-c1ccccc1)n1nc(-c2ccc(O)c(F)c2)c2c(N)ncnc21 [Example 16b, (−)-2-(1-(4-amino-3-(3-fluoro-4-hydroxyphenyl)-1H-pyrazolo[3,4-d]pyrimidin-1-yl)ethyl)-5-fluoro-3-phenylquinazolin-4(3H)-one]
